Values of other authors in PMC7961996, “Small Immunomodulatory Molecules as Potential Therapeutics in Experimental Murine Models of Acute Lung Injury (ALI)/Acute Respiratory Distress Syndrome (ARDS)” (International Journal of Molecular Sciences, 2021).

Columns and labels:
[1] = system: murine macrophages and human peripheral blood monocytes-hPBMC; set-up: method as in PMID 22654663; details: in vitro; cited from earlier work
[2] = system: endotoxemia; set-up: method as in PMID 22654663; details: in vivo; cited from earlier work

## chitohexaose
[1]
  LPS-induced inflammatory mediators such as TNF-α and IL-6: blocks lipopolysaccharide (LPS)-induced inflammatory mediators
[2]
  endotoxemia: reduces endotoxemia
